Compound | melting point [°C]
O=C1CCCCC1c1c[nH]c2ccccc12 (configuration not stated) | 122 to 124
Cn1cc(-c2ccccc2)c(=S)c(-c2cccc(C(F)(F)F)c2)c1 | 210
C#CCN1C(=O)COc2cc(F)c(-n3c(=O)oc4c(c3=O)CCC4)cc21 | 222 to 224
CC(C)(C)Cc1c(CC(C)(C)C(=O)O)n(Cc2ccc(Cl)cc2)c2ccc(OCc3ccc4scc(Cl)c4n3)cc12 | 185 to 186
CCOc1cc(C(=O)c2c(-c3ccc(OC)cc3)sc3cc(OC)ccc23)cc(OCC)c1OCC | 108 to 110
CC(=Cc1ncon1)c1ccc(Cl)cc1 | 56 to 57
O=C(O)C1=Cc2cc(Cl)cc(-c3nc4ccccc4[nH]3)c2OC1C(F)(F)F (configuration not stated) | > 300
COc1ccc2c(c1)CC(=O)CO2 | 67 to 72
C[C@@H]1Cc2cc(N3C[C@H](COS(C)(=O)=O)OC3=O)ccc2N1C(=O)OCc1ccccc1 | 72 to 73
COc1ccc(-c2nnc3c4ccccc4c(CCl)nn23)cc1 | 203 to 206
Cc1cccc(C)c1N1CN(C)CN(C)C1=S | 121 to 123
[N-]=[N+]=N[Si](c1ccccc1)(c1ccccc1)c1ccccc1 | 82 to 84
CC1Cc2ccc(C#N)cc2C1=O (configuration not stated) | 95
O=C(NC1(Cc2ccccc2)CCN(Cc2ccccc2)CC1)N1CCCC1 | 126
FC(F)(F)c1cccc(-c2cnnn2-c2cc(Cl)ccc2-c2nnn[nH]2)c1 | 230 to 232
CC1CCN(c2c(F)cc3c(=O)c(C(=O)O)cn4c3c2CCC4C)CC1 (configuration not stated) | 266 to 268
CCC(Oc1ccc(F)cc1)C(=O)OC1CC(O)C=C2C=CC(C)C(CCC3CC(O)CC(=O)O3)C21 (mixture of isomers) | 149 to 150
COC(=O)C(Cc1ccc(OCCc2nc(-c3ccccc3)oc2C)cc1)C(=O)NC(N)=O (configuration not stated) | 74.6 to 75.6
CN1C(=O)C2C3CCC(C3)C2(c2ccc(N)cc2)C1=O (configuration not stated) | 131 to 133
O=[N+]([O-])c1ccc(N2CCCC2)c(S(=O)(=O)O)c1 | 178 to 179
CS(=O)(=O)c1ccc(-c2sc(NCc3ccccc3)nc2-c2ccc(F)cc2)cc1 | 112
C=C(Nc1nc(-c2ccccc2)c(-c2nc3ccccc3c(=O)n2-c2ccc(OC)cc2)s1)c1ccco1 | 262 to 264
C=C(C)c1ccccc1N1CCN(C(=O)Nc2cc(C)c(C)nc2OC)CC1 | 139 to 140
O=C(Nc1cccc2c1C(=O)c1c-2n[nH]c1[C@H]1CC[C@H](C(=O)N2CCNCC2)CC1)NN1CCOCC1 | 247 to 248
CC(C)N1C(=O)NC(c2ccc3c(c2)OCCO3)c2cc3c(cc21)OCCO3 (configuration not stated) | 92 to 95

Compound | melting point [°C]
CCn1c(C(O)(c2ccccc2)c2ccccc2)nc(-c2ccncc2)c1-c1ccc(Cl)cc1 | 222 to 223
CP(C)(=O)C(O)C(=O)OCC(=O)c1ccccc1 (configuration not stated) | 147
CCOC(=O)c1cc2oc3c(n2n1)CCOC3 | 116 to 118
COc1ccc(C(=O)Cc2ccc3c(c2)OCO3)cc1OC | 110 to 111
O=C1c2ccccc2C(O)N1CCCCCO[N+](=O)[O-] (configuration not stated) | 70 to 72
C#CCN(Cc1cn(C(C)(C)C)nn1)Cc1cn(C(C)(C)C)nn1 | 126
COc1c(Cl)cc2nc3c(=O)[nH][nH]c(=O)c3c(O)c2c1Cl | 210 to 211
CCCCCCCCCCCCCC(=O)OCC1OC(n2cc(F)c(=O)n(C(=O)c3ccc(C)cc3)c2=O)CC1OC(=O)CCCCCCCCCCCCC (configuration not stated) | 76 to 77
N#CC=Cc1ccc(Cc2ncc[nH]2)cc1 | 118 to 120
CCN(CC)CCCN1C(=O)NC(Cc2c[nH]c3ccc(OC)cc23)C1=O (configuration not stated) | 136
CNC(=O)c1ccc(C(=O)OC)cc1 | 126
Cn1c(C2CC2)nc2c(O)c(C(=O)[C@H](O)[C@@H](O)c3ccccc3)ccc21 | 156
Nc1nnc2c3c(c(Cl)nn12)CCCC3 | 224 to 225
N#CSCCNc1c(Cl)cccc1[N+](=O)[O-] | 92 to 94
Cc1c(CO)c2cnnc(OCc3ccc(F)cc3)c2n1Cc1ccccc1 | 122 to 124
O=S(=O)(OS(=O)(=O)C1CCCCC1)C1CCCCC1 | 97 to 100
O=C(NC/C=C\COc1cc(CN2CCCCC2)ccn1)c1ccc[nH]1 | 136 to 137
COC(=O)C(C#N)=C(O)c1cc(F)c(F)c(F)c1F | 71 to 73
COc1nc(C)nc(NC(=O)NS(=O)(=O)c2c(C)cccc2OCCF)n1 | 161
COC(=O)C#CC(=O)c1cccc(OC)c1 | 32 to 34
O=C1N(Cc2ccc(Cl)s2)c2ccc(F)cc2C12COc1cc3c(cc12)OCO3 (configuration not stated) | 142 to 144
COc1ccc(-c2nc(N)c(C#N)nc2-c2ccc(=O)n(C(C)C)c2)cc1 | 244
N#CC(C#N)=C1C=C(c2ccccc2)S(=O)(=O)C(c2cccs2)=C1 | 214 to 232
COc1cc(Nc2nccc(Nc3ccc(CC(=O)OCc4ccccc4)cc3)n2)cc(OC)c1OC | 149
Cc1ccc(S(=O)(=O)c2ccc3[nH]c(C)c(CCNC(=O)OC(C)(C)C)c3c2)cc1 | 134 to 138

Compound | melting point [°C]
O=C1NCCN1c1ccc(S(=O)(=O)Nc2cccc(Br)c2)cc1 | 184 to 185
O=C(Nc1ccccc1C(=O)NCCc1ncc[nH]1)c1ccc(-c2ccccc2)cc1 | 197 to 201
COc1ccc(NC(=O)c2ccc(F)c(F)c2)cc1NS(=O)(=O)c1cccc(N)c1 | 205 to 209
COC(=O)c1ccc(C(=O)N2CCN(c3ncccc3N)CC2)cc1 | 144
COC(=O)C1=C(C)NC2=C(C(=O)CN(Cc3ccccc3)C2)C1c1ccccc1C(F)(F)F (configuration not stated) | 225 to 227
COc1ccc(-c2cc(CN3CCN(CCO)CC3)c(=O)n(CC=Cc3ccc(Cl)cc3)n2)cc1F | 133 to 135
Nc1nc(N)nc(-c2ccc(-c3ccccc3[N+](=O)[O-])cc2)n1 | > 250
CN1C(=O)C(c2cccc(-c3cccnc3F)c2)(c2cnn(CC(F)(F)F)c2)N=C1N (configuration not stated) | 104 to 106
Cc1cc([N+](=O)[O-])ccc1NC(=O)n1nc(Oc2cccc(C(F)(F)F)c2)cc1C | 165 to 166
CNC1(c2ccccc2)CCC(c2[nH]c3ccccc3c2CCc2ccncc2)CC1 (configuration not stated) | 224 to 227
CN(c1cccc2cc(C3=NCC(CC(=O)NCCO)S3)[nH]c12)S(=O)(=O)c1cccs1 (configuration not stated) | 214
CC(C)(O)COc1c(-c2ccc(S(N)(=O)=O)cc2)cnn(-c2ccc(F)cc2)c1=O | 155 to 158
CCOC(=O)c1cnc2sc3c(n12)CCC3 | 101 to 102
CCCc1c(OCc2ccc(/C=C3\SC(=S)NC3=O)cc2)ccc(C(C)=O)c1O | 236 to 238
O=C1CSC(c2cccc(Cl)c2)c2cc(C(=O)c3ccc(Cl)cc3)ccc2N1 (configuration not stated) | 222
COC(=O)C1=C(C=O)NC(C)=C(P2(=O)OCCCO2)C1c1ccccc1[N+](=O)[O-] (configuration not stated) | 135 to 136
COC(=O)Nc1cn2cc(Sc3ccccc3)ccc2n1 | 247 to 249
O=C1N(Cc2ccc(C(F)(F)F)o2)c2ccccc2C12COc1cc3c(cc12)OCCCO3 (configuration not stated) | 162 to 164
NC(=O)c1ccccc1-c1n[nH]c(-c2ccccc2)n1 | 222 to 225
CC(C)Oc1ccc2c(Cl)nc(C(=O)NCCO)c(O)c2c1 | 155 to 156
NC(=O)[C@H]1CN(c2ccc(C3=NNC(=O)CS3)c(F)c2)C(=O)O1 | 249 to 251
CC(C)(C)OC(=O)N1CCN(CC(=O)Nc2ccc(CC#N)cc2)CC1 | 137 to 138
COc1cc(C(F)(F)F)c2[nH]c3c(c2c1)CNCC3 | 140 to 144
CC(C)N(C)CCOc1ccc(-n2ccc(OCc3ccc(Cl)cn3)cc2=O)cc1 | 137 to 138
Cc1ccc(-c2ccc3c(c2)C=C(C(=O)Nc2ccc(CN4CCN(c5ncccn5)CC4)cc2)CC3)cc1 | 203 to 204

Compound | melting point [°C]
CNc1cc(F)ccc1C(=O)CSC | 61.5 to 63
Cc1cc2c(c(C)c1Br)C(=O)C(C)(C)O2 | 63 to 64
O=C(Nc1ccc(N2CCCC2)nc1)c1cc2nc(C(F)(F)F)ccc2n1Cc1cccc(F)c1 | 219 to 220
O=c1[nH]c2ncc(-c3ccc(O)cc3)nc2n1CCO | 308 to 310
CCCCNC(=O)c1ccc2c(=O)nc(-c3ccccn3)sc2c1 | 194
CCOC(=O)c1c(CN(CC)CC)nc2sc3c(c2c1-c1ccc(OC)c(OC)c1)CCN(C(C)=O)C3 | 72 to 75
COC(=O)C1Oc2ccccc2CC1CO (configuration not stated) | 84 to 85
CNC(=O)Cn1nnnc1S | 167 to 168
CN(C)CCNC(=O)N1CCN(c2ccc(C(N)=O)cc2)CC1 | 193 to 195
Cc1nnc(-c2ccc3occ(-c4ccc5c(c4)C(C)(C)CS5=O)c3c2)o1 (configuration not stated) | 179 to 180
CNC(=O)CN1CCc2cc(Nc3ncc(Cl)c(Nc4ccccc4OC)n3)c(OC)cc2CC1 | 81 to 95
CC1=Cc2ccncc2C(C)(NS(=O)(=O)c2ccc(C)cc2)c2ccccc21 (configuration not stated) | 174 to 177
Nc1ncnc2c1ncn2CCO | 236
CCN1CCN(c2ccnc3c(NC(=O)c4c(Cl)cccc4Cl)ccc(C)c23)C1=O | 235 to 236
O=c1[nH]c(Nc2cccc(C(F)(F)F)c2)nc2c1ncn2CCO | 347 to 349
O=C(NCCCO)c1cccc(-c2cccc(Oc3cc(Cl)cc(Cl)c3)n2)c1 | 101 to 102
Cn1c2c(c3ccccc31)Cc1ccccc1-2 | 152
CCOC(=O)c1sc(Oc2ccc(O)cc2)c2c1CCc1cnn(C)c1-2 | 245 to 246
Cc1ccccc1C(=O)CN1C(=O)C(NC(=O)Nc2cccc(-c3nnn[nH]3)c2)N=C(C2CCCCC2)c2cccc(C)c21 (configuration not stated) | 165 to 177
O=c1[nH]c2ncc(-c3ccc(O)cc3)nc2n1C1CCCC1 | 299 to 301
CCOC(=O)c1cn(C2CC2)c2c(F)c(NCC(O)CO)c(F)cc2c1=O (configuration not stated) | 173 to 175
CS(=O)(=O)NC(=O)/C(C#N)=C/c1cn(-c2cc(C(F)(F)F)cc(C(F)(F)F)c2)nc1-c1cccc(Cl)c1 | 273 to 275
